Reference: ChEMBL document CHEMBL6177971, “Iterative Optimization Yields Stapled Peptides with Superior Pharmacokinetics and Potency for Renal Fibrosis Treatment” (J Med Chem, 2025)
Active and inactive are the calls of the source. The calls are words filed in the database; no cut-off is given here.

Experiments:
HK-2 [1] = test: Inhibition of myofibroblast activation in TGF-beta1-induced EMT in human HK-2 cells assessed as decrease in collagen I level at 1 to 5 uM incubated for 24 hrs by Western blot analysis; assay type: functional, cell-based; conditions: dose 1-5 µM
Mus musculus [2] = test: Anti-fibrotic activity in C57BL/6J mouse model of unilateral ureteral obstruction assessed as decrease in kidney inflammation at 0.05 to 1.25 mg/kg, ip administered every day for 7 days; assay type: functional, organism-based; conditions: dose 0.05-1.25 mg/kg, time 7.0 day
Albumin = Albumin (Bos taurus, UniProt P02769); test: Binding affinity to bovine serum albumin assessed as dissociation constant by ITC analysis; assay type: ADME
Mus musculus [3] = test: Anti-fibrotic activity in C57BL/6J mouse model of unilateral ureteral obstruction assessed as decrease in collagen I mRNA level at 0.25 mg/kg, ip administered every day for 7 days by qPCR analysis; assay type: functional, organism-based; conditions: time 7.0 day
HK-2 [4] = test: Inhibition of myofibroblast activation in TGF-beta1-induced EMT in human HK-2 cells assessed as decrease in vimentin level at 1 to 5 uM incubated for 24 hrs by Western blot analysis; assay type: functional, cell-based; conditions: dose 1-5 µM
HK-2 [5] = test: Inhibition of myofibroblast activation in TGF-beta1-induced EMT in human HK-2 cells assessed as decrease in COL1A1 mRNA level at 1 to 5 uM incubated for 24 hrs by qPCR analysis; assay type: functional, cell-based; conditions: dose 1-5 µM
Mus musculus [6] = test: Anti-fibrotic activity in C57BL/6J mouse model of unilateral ureteral obstruction assessed as decrease in renal collagen I […] level administered intraperitoneally every day for 7 days by IHC analysis; assay type: functional, organism-based; conditions: dose 0.05-1.25 mg/kg, route ip, time 7.0 day
HK-2 [7] = test: Inhibition of myofibroblast activation in TGF-beta1-induced EMT in human HK-2 cells assessed as decrease in FN-1 mRNA level at 1 to 5 uM incubated for 24 hrs by qPCR analysis; assay type: functional, cell-based; conditions: dose 1-5 µM
NIH3T3 [8] = test: Inhibition of myofibroblast activation in TGF-beta1-induced EMT in mouse NIH3T3 cells assessed as decrease in collagen I level at 1 to 2 uM incubated for 48 hrs by Western blot analysis; assay type: functional, cell-based; conditions: dose 1-2 µM
Mus musculus [9] = test: Anti-fibrotic activity in C57BL/6J mouse model of unilateral ureteral obstruction assessed as decrease in alpha-SMA mRNA level at 0.25 mg/kg, ip administered every day for 7 days by qPCR analysis; assay type: functional, organism-based; conditions: time 7.0 day
Mus musculus [10] = test: Anti-fibrotic activity in C57BL/6J mouse model of unilateral ureteral obstruction assessed as decrease in vimentin level at 0.25 mg/kg, ip administered every day for 7 days by Western blot analysis; assay type: functional, organism-based; conditions: time 7.0 day
HK-2 [11] = test: Inhibition of myofibroblast activation in TGF-beta1-induced EMT in human HK-2 cells assessed as increase in E-cadherin level at 1 to 5 uM incubated for 24 hrs by Western blot analysis; assay type: functional, cell-based; conditions: dose 1-5 µM
[12] = AUC (0 to t) in male C57BL/6J mouse at 2.8 mg/kg, iv measured for 3 to 240 mins by UHPLC-HRMS analysis; assay type: ADME, organism-based; conditions: in vivo, time 3-240 min
NIH3T3 [13] = test: Inhibition of myofibroblast activation in TGF-beta1-induced EMT in mouse NIH3T3 cells assessed as decrease in fibronectin level incubated for 48 hrs by Western blot analysis; assay type: functional, cell-based; conditions: dose 1-10 µM
Mus musculus [14] = test: Anti-fibrotic activity in C57BL/6J mouse model of unilateral ureteral obstruction assessed as decrease in renal fibrosis at 0.05 to 1.25 mg/kg, ip administered every day for 7 days by H and E staining based analysis; assay type: functional, organism-based; conditions: dose 0.05-1.25 mg/kg, time 7.0 day
NIH3T3 [15] = test: Inhibition of myofibroblast activation in TGF-beta1-induced EMT in mouse NIH3T3 cells assessed as decrease in vimentin level at 1 to 2 uM incubated for 48 hrs by Western blot analysis; assay type: functional, cell-based; conditions: dose 1-2 µM
[16] = Clearance in male C57BL/6J mouse at 2.8 mg/kg, iv measured for 3 to 240 mins by UHPLC-HRMS analysis; assay type: ADME, organism-based; conditions: in vivo, time 3-240 min
Mus musculus [17] = test: Anti-fibrotic activity in C57BL/6J mouse model of unilateral ureteral obstruction assessed as decrease in kidney fibrosis at 0.05 to 1.25 mg/kg, ip administered every day for 7 days; assay type: functional, organism-based; conditions: dose 0.05-1.25 mg/kg, time 7.0 day
HK-2 [18] = test: Inhibition of myofibroblast activation in TGF-beta1-induced EMT in human HK-2 cells assessed as decrease in alpha-SMA level at 1 to 10 uM incubated for 24 hrs by Western blot analysis; assay type: functional, cell-based; conditions: dose 1-10 µM
HK-2 [19] = test: Inhibition of myofibroblast activation in TGF-beta1-induced EMT in human HK-2 cells assessed as increase in CDH-1 mRNA level at 1 to 5 uM incubated for 24 hrs by qPCR analysis; assay type: functional, cell-based; conditions: dose 1-5 µM
Mus musculus [20] = test: Anti-fibrotic activity in C57BL/6J mouse model of unilateral ureteral obstruction assessed as decrease in TGF-beta1 mRNA level at 0.25 mg/kg, ip administered every day for 7 days by qPCR analysis; assay type: functional, organism-based; conditions: time 7.0 day
NIH3T3 [21] = test: Inhibition of myofibroblast activation in TGF-beta1-induced EMT in mouse NIH3T3 cells assessed as decrease in MMP2 mRNA level at 1 to 2 uM incubated for 48 hrs by qPCR analysis; assay type: functional, cell-based; conditions: dose 1-2 µM
NIH3T3 [22] = test: Inhibition of myofibroblast activation in TGF-beta1-induced EMT in mouse NIH3T3 cells assessed as decrease in TGF-beta1 mRNA level at 1 to 2 uM incubated for 48 hrs by qPCR analysis; assay type: functional, cell-based; conditions: dose 1-2 µM
HK-2 [23] = test: Inhibition of myofibroblast activation in TGF-beta1-induced EMT in human HK-2 cells assessed as decrease in MMP2 mRNA level at 1 to 5 uM incubated for 24 hrs by qPCR analysis; assay type: functional, cell-based; conditions: dose 1-5 µM

Albumin, sequence (P02769 whole entry): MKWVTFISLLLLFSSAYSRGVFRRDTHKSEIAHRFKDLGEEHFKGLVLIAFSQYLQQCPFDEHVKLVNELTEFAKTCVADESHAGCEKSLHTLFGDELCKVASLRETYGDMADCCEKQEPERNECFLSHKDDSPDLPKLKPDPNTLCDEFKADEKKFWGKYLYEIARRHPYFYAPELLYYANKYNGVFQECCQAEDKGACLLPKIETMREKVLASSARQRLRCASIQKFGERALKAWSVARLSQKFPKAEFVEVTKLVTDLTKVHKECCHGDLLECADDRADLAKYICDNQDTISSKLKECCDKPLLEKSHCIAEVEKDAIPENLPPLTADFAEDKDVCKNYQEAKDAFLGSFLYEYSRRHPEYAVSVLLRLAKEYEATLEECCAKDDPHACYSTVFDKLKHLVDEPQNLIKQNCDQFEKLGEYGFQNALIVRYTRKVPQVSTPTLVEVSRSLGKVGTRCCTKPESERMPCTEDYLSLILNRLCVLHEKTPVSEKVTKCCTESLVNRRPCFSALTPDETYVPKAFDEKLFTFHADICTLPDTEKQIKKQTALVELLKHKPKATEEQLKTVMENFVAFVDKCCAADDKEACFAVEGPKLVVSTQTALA

Kd (Albumin): 10.6 µM
AUC(0-t) [12]: 1890 ng·h/mL
clearance [16]: 0.467 mL/min
SMILES: CCCCCCCCCCCC(=O)N[C@H](CC(=O)O)C(=O)N[C@@H](Cc1c[nH]cn1)C(=O)N[C@@H](CC(N)=O)C(=O)N[C@H]1CSCCCCCCSC[C@@H](C(N)=O)NC(=O)[C@@H](C)NC(=O)[C@H](CCC(N)=O)NC(=O)[C@@H]2CCCN2C1=O
inhibition (HK-2 [1]): Active
Activity (Mus musculus [2]): Active
Activity (Mus musculus [3]): Active
inhibition (HK-2 [4]): Active
inhibition (HK-2 [5]): Active
Activity (Mus musculus [6]): Dose-dependent-effect
inhibition (HK-2 [7]): Active
inhibition (NIH3T3 [8]): Active
Activity (Mus musculus [9]): Active
Activity (Mus musculus [10]): Active
inhibition (HK-2 [11]): Active
inhibition (NIH3T3 [13]): Active; No Further Enhancement In Antifibrotic Activity Was Observed At Concentrations Above 2 Î¼M
Activity (Mus musculus [14]): Active
inhibition (NIH3T3 [15]): Active
Activity (Mus musculus [17]): Active
inhibition (HK-2 [18]): Active; No Additional Suppression Observed At Concentrations Above 5 Î¼M
inhibition (HK-2 [19]): Active
Activity (Mus musculus [20]): Active
inhibition (NIH3T3 [21]): Active
inhibition (NIH3T3 [22]): Active
inhibition (HK-2 [23]): Active
